Source: patent US7094801B2, “Chalcone derivatives and their use to treat diseases” (Atherogenics, Inc., priority 2001, dated 2006)

Assays:
[1] = test system: VCAM-1; test: In Vitro VCAM-1 Assay (TNF-α stimulated HAEC or HPAEC, cell ELISA); type: cell-based, human; details: TNF-α (1 ng/ml) stimulated HAEC or HPAEC, approximately 16 hours
Description: Cell Culture and compound dosing: Cultured primary human aortic (HAEC) or pulmonary (HPAEC) endothelial cells were obtained from Clonetics, Inc., and were used below passage 9. Cells were seeded in 96 well plates such that they would reach 90–95% confluency by the following day. On the following day the cells were stimulated with TNF-α (1 ng/ml) in the presence or absence of compounds dissolved in DMSO such that the final concentration of DMSO is 0.25% or less. To establish a dose curve for each compound, four concentrations in 2- to 5-fold increments were used. Cells were exposed to TNF-α and compounds for approximately 16 hours. The next day the cells were examined under microscope to score for visual signs of toxicity or cell stress.
Following 16 hr exposure to TNF-α and compound the media was discarded and the cells were washed once with Hanks Balanced Salt Solution (HBSS)/Phosphate buffered saline (PBS) (1:1). Primary antibodies against VCAM-1 (0.25 μg/ml in HBSS/PBS+5% FBS) were added and incubated for 30–60 minutes at 37° C. Cells were washed with HBSS/PBS three times, and secondary antibody Horse Radish Peroxidase (HRP)-conjugated goat anti-mouse IgG (1:500 in HBSS/PBS+5% FBS) were added and incubated for 30 minutes at 37° C. Cells were washed with HBSS/PBS four time and TMB substrate were added and incubated at room temperature in the dark until there was adequate development of blue color. The length of time of incubation was typically 5–15 minutes. 2N sulfuric acid was added to stop the color development and the data was collected by reading the absorbance on a BioRad ELISA plate reader at OD 450 nm. The results are expressed as IC50 values (the concentration (micromolar) of compound required to inhibit 50% of the maximal response of the control sample stimulated by TNF-α only).

| Compound | IC50 ([1]; Homo sapiens, 16 h) [µM] | melting point | IC50 [1] [µM] |
| --- | --- | --- | --- |
| CCOC(=O)CNC(=O)Nc1ccc(C(=O)/C=C/c2ccc(-c3cccs3)cc2)cc1 [Example 15, (3-{4-[3E-(4-Thiophen-2-yl-phenyl)-acryloyl]-phenyl}-ureido)-acetic acid ethyl ester] | > 10 | 209 to 212 °C |  |
| O=C(O)c1ccc(C(=O)/C=C/c2ccc(-c3nccs3)cc2)cc1 [Example 5, 4-[3E-(4-Thiazol-2-yl-phenyl)acryloyl]-benzoic acid] | < 1 | 232 to 235 °C |  |
| O=C(/C=C/c1ccc(-c2cccs2)cc1)c1ccc(S)cc1 [Example 22, 1-(4-Mercapto-phenyl)-3E-(4-thiophen-2-yl-phenyl)-propenone] | > 10 | > 110 °C (dec.) |  |
| COc1cc(OC)c(-c2cc3ccccc3[nH]2)cc1/C=C/C(=O)c1ccc(S(N)(=O)=O)cc1 [Example 84, 4-{3E-[5-(1H-Indol-2-yl)-2,4-dimethoxy-phenyl]-acryloyl}-benzenesulfonamide] | < 5 | 185 to 187 °C |  |
| O=C(O)c1ccc(C(=O)/C=C/c2cccc(-c3cccs3)c2)cc1 [Example 42, 4-[3E-(3-Thiophen-2-yl-phenyl)-acryloyl]-benzoic acid] | < 5 | 238 °C (dec.) |  |
| COc1cc(/C=C/C(=O)c2ccc3c(c2)OC(CO)(CO)O3)cc(-c2cccs2)c1OC [Example 1, 1-(2,2-Bis-hydroxymethyl-benzo[1,3]dioxol-5-yl)-3E-(3,4-dimethoxy-5-thiophen-2-yl-phenyl)-propenone] | < 1 | 74 to 80 °C |  |
| COc1cc(OC)c(-c2cc3ccccc3s2)cc1/C=C/C(=O)c1ccccc1C(=O)O [Example 7, 2-[3E-(5-Benzo[b]thiophen-2-yl-2,4-dimethoxy-phenyl)-acryloyl]-benzoic acid] |  | 220 to 223 °C (dec.) | < 1 |
| COc1cc(-c2cccs2)ccc1C(=O)/C=C/c1ccc(C(=O)O)cc1 [Example 19, 4-[3-(2-Methoxy-4-thiophen-2-yl-phenyl)-3-oxo-E-propenyl]-benzoic acid] | < 1 | 193 to 195 °C |  |
| Nc1ccc(C(=O)/C=C/c2ccc(-c3cccs3)cc2)cc1 [Example 12, 1-(4-Amino-phenyl)-3E-(4-thiophen-2-yl-phenyl)-propenone] | < 5 | 185 to 187 °C |  |
| O=C(O)c1ccc(C(=O)/C=C/c2ccc(-c3cncnc3)cc2)cc1 [Example 4, 4-[3E-(4-Pyrimidin-5-yl-phenyl)-acryloyl]-benzoic acid] | < 10 | > 260 °C |  |
| CSc1ccc(C(=O)/C=C/c2ccc(-c3cccs3)cc2)cc1 [Example 24, 1-(4-Methylthiophenyl)-3E-(4-thiophen-2-yl-phenyl)-propenone] | > 10 | 138 to 140 °C |  |
| COc1cc(OC)c(-c2cc3ccccc3n2C)cc1/C=C/C(=O)c1ccc(S(N)(=O)=O)cc1 [Example 117, 4-{3E-[2,4-Dimethoxy-5-(1-methyl-1H-indol-2-yl)-phenyl]-acryloyl}-benzenesulfonamide] | < 5 | 148 to 150 °C |  |
| NS(=O)(=O)c1ccc(C(=O)/C=C/c2ccc(-c3cccs3)cc2)cc1 [Example 26, 4-[3E-(4-Thiophen-2-yl-phenyl)-acryloyl]-benzenesulfonamide] | > 10 | > 245 °C |  |

Now from value to molecule:

| IC50 ([1]; Homo sapiens, 16 h) [µM] | melting point | IC50 [1] [µM] | Compound |
| --- | --- | --- | --- |
| < 10 | 238 °C (dec.) |  | COc1cc(OC)c(-c2cnccn2)cc1/C=C/C(=O)c1ccc(C(=O)O)cc1 [Example 46, 4-[3E-(2,4-Dimethoxy-5-pyrazin-2-yl-phenyl)-acryloyl]-benzoic acid] |
| < 5 | 98 to 104 °C |  | COc1cc(OC)c(-c2cc3ccccc3s2)cc1/C=C/C(=O)c1ccc(N)cc1 [Example 13, 1-(4-Amino-phenyl)-3E-(5-benzo[b]thiophen-2-yl-2,4-dimethoxy-phenyl)-propenone] |
| < 5 | 219 to 220 °C |  | COc1ccc(/C=C/C(=O)c2ccc(C(=O)O)cc2)cc1-c1cccs1 [Example 41, 4-[3E-(4-Methoxy-3-thiophen-2-yl-phenyl)-acryloyl]-benzoic acid] |
| < 1 | 210 to 212 °C |  | COc1cc(OC)c(-c2cc3ccccc3[nH]2)cc1/C=C/C(=O)c1ccc(C(=O)O)cc1 [Example 61, 4-{3E-[5-(1H-Indol-2-yl)-2,4-dimethoxy-phenyl]-acryloyl}-benzoic acid] |
| < 1 | 188 to 191 °C (dec.) |  | COc1cc(OCCCN2CCOCC2)c(/C=C/C(=O)c2ccc(C(=O)O)cc2)cc1-c1cccs1.Cl [Example 66, 4-{3E-[4-Methoxy-2-(3-morpholin-4-yl-propoxy)-5-thiophen-2-yl-phenyl]-acryloyl}-benzoic acid, hydrochloride] |
| < 5 | 208 to 209 °C |  | COc1cc(OC)c(-c2cc3ccccc3s2)cc1/C=C/C(=O)c1ccc(C(=O)NC(=O)C(C)C)cc1 [Example 96, 4-[3E-(5-Benzo[b]thiophen-2-yl-2,4-dimethoxy-phenyl)-acryloyl]-N-isobutyryl-benzamide] |
| < 1 | > 260 °C |  | O=C(O)c1ccc(C(=O)/C=C/c2ccc(-c3cccs3)cc2F)cc1 [Example 30, 4-[3E-(2-Fluoro-4-thiophen-2-yl-phenyl)-acryloyl]-benzoic acid] |
| > 10 | > 260 °C |  | COc1cc(OC)c(-c2cncnc2)cc1/C=C/C(=O)c1ccc(C(=O)O)cc1 [Example 31, 4-[3E-(2,4-Dimethoxy-5-pyrimidin-5-yl-phenyl)-acryloyl]-benzoic acid] |
| > 10 | 125 °C (dec.) |  | COc1cc(O)c(/C=C/C(=O)c2ccc(C(=O)O)cc2)cc1-c1cccs1 [Example 58, 4-[3E-(2-Hydroxy-4-methoxy-5-thiophen-2-yl-phenyl)-acryloyl]-benzoic acid] |
| > 10 | 256 to 258 °C |  | COc1cc(-c2cccs2)cc(OC)c1/C=C/C(=O)c1ccc(C(=O)O)cc1 [Example 37, 4-[3E-(2,6-Dimethoxy-4-thiophen-2-yl-phenyl)-acryloyl]-benzoic acid] |
| > 10 | 135 to 137 °C |  | COc1cc(OC(C)(C)C(=O)O)c(-c2cccs2)cc1/C=C/C(=O)c1ccc(C(=O)O)cc1 [Example 47, 4-{3E-[4-(1-Carboxy-1-methyl-ethoxy)-2-methoxy-5-thiophen-2-yl-phenyl]-acryloyl}-benzoic acid] |
| > 10 | 219 to 220 °C |  | COc1cc(OCC(CO)CO)c(/C=C/C(=O)c2ccc(C(=O)O)cc2)cc1-c1cccs1 [Example 64, 4-{3E-[2-(3-Hydroxy-2-hydroxymethyl-propoxy)-4-methoxy-5-thiophen-2-yl-phenyl]-acryloyl}-benzoic acid] |
| < 1 | 186 to 188 °C |  | COc1cc(OCCN2CCOCC2)c(/C=C/C(=O)c2ccc(S(N)(=O)=O)cc2)cc1-c1cccs1 [Example 81, 4-{3E-[4-Methoxy-2-(2-morpholin-4-yl-ethoxy)-5-thiophen-2-yl-phenyl]-acryloyl}-benzenesulfonamide] |
| < 10 | 174 to 175 °C |  | COCCOCCOc1cc(OC)c(/C=C/C(=O)c2ccc(C(=O)O)cc2)cc1-c1cccs1 [Example 49, 4-(3E-{2-Methoxy-4-[2-(2-methoxy-ethoxy)-ethoxy]-5-thiophen-2-yl-phenyl}-acryloyl)-benzoic acid] |
| < 1 | 183 to 184 °C |  | COc1cc(OCCN2CCOCC2)c(/C=C/C(=O)c2ccc(C(N)=O)cc2)cc1-c1cccs1 [Example 92, 4-{3E-[4-Methoxy-2-(2-morpholin-4-yl-ethoxy)-5-thiophen-2-yl-phenyl]-acryloyl}-benzamide] |
| > 10 | 199 to 201 °C |  | COc1cc(OCC(CO)CO)c(-c2cccs2)cc1/C=C/C(=O)c1ccc(C(=O)O)cc1 [Example 50, 4-{3E-[4-(3-Hydroxy-2-hydroxymethyl-propoxy)-2-methoxy-5-thiophen-2-yl-phenyl]-acryloyl}-benzoic acid] |
| > 10 | > 250 °C |  | COc1cc(OC)c(-c2cn[nH]c2)cc1/C=C/C(=O)c1ccc(C(=O)O)cc1 [Example 74, 4-{3E-[2,4-Dimethoxy-5-(1H-pyrazol-4-yl)-phenyl]-acryloyl}-benzoic acid] |
| < 1 | 81 to 83 °C |  | COc1cc(OCCCN2CCOCC2)c(/C=C/C(=O)c2ccc(C(N)=O)cc2)cc1-c1cccs1 [Example 94, 4-{3E-[4-Methoxy-2-(3-morpholin4-yl-propoxy)-5-thiophen-2-yl-phenyl]-acryloyl}-benzamide] |
| < 10 | 149 to 151 °C |  | COC(=O)c1ccc(C(=O)/C=C/c2cc(-c3cc4ccccc4s3)c(OC)cc2OC)cc1 [Example 118, 4-[3E-(5-Benzo[b]thiophen-2-yl-2,4-dimethoxy-phenyl)-acryloyl]-benzoic acid methyl ester] |
